Test results from patent US9284306B2, “(R)-Nifuratel, its use for the treatment of infections and synthesis of (R) and (S)-Nifuratel” (POLICHEM SA, priority 2012, dated 2016).
Values after ≈ are worked out from the molar mass of the structure shown. Like-named read-outs stand apart in the source and are kept apart here.

Legend:
Bacillus subtilis = test: MIC, broth microdilution; format: cell-based; conditions: broth microdilution, read-out: MIC
Procedure: (§1) Micrococcus pyogenes (ATCC 11631), Bacillus subtilis (ATCC 11774), Lactobacillus iners (ATCC 55195), Escherichia coli (ATCC 11775), Proteus mirabilis (ATCC 14153), Klebsiella pneumoniae (ATCC 10031), Shigella sonnei (ATCC 11060), Neisseria gonorrhoeae (ATCC 19424), Salmonella typhimurium (ATCC 14028) Salmonella paratyphi B (ATCC 10719), Helicobacter pylori (ATCC 43504) and several strains of Atopobium vaginae and Gardnerella vaginalis.
(§2) Strains were prepared from freeze-dried pellets. An isolation of the suspensions (to test the strains purity) and a strains massive growth were made by streaking microbial suspensions on agar media. The bacterial colonies on agar plates were collected with 3-5 mL of specific liquid medium+15% glycerol and then the aliquots were frozen at −80° C.
(§3) Compounds Minimal Inhibitory Concentration (MIC) was determined through broth micro-dilution susceptibility testing with a method developed following the National Committee for Clinical Laboratory Standards (CLSI) M07-A8 and M11-A7 references. Assays were carried out in specific media (Table 3). The tests were performed either following the broth microdilution assay or the agar dilution assay. Compounds stock solutions were made at 12.8 mg/mL in DMSO 100%. A series of twofold dilutions were then prepared using the strain specific broth. Final concentrations were from 0.125 μg/mL to 64 μg/mL at 1% DMSO. MIC is defined as the lowest concentration of antibacterial agent which prevent any visible growth.

[1] = test system: Escherichia coli ATCC 11775; test: MIC, broth microdilution; format: cell-based; conditions: ATCC11775; broth microdilution; Escherichia coli ATCC 11775; read-out: MIC
Procedure: as §1, §2, §3

[2] = test system: Helicobacter pylori ATCC 43504; test: MIC, broth microdilution; format: cell-based; conditions: ATCC43504
Procedure: as §1, §2, §3

[3] = test system: Klebsiella pneumonia ATCC 10031; test: MIC, broth microdilution; format: cell-based; conditions: Klebsiella pneumoniae, ATCC10031; broth microdilution; Klebsiella pneumonia ATCC 10031; read-out: MIC
Procedure: as §1, §2, §3

[4] = test system: Lactobacillus iners ATCC 55195; test: MIC, broth microdilution; format: cell-based; conditions: ATCC55195; broth microdilution; Lactobacillus iners ATCC 55195; read-out: MIC
Procedure: as §1, §2, §3

[5] = test system: Micrococcus pyogenes ATCC 11631; test: MIC, broth microdilution; format: cell-based; conditions: Staphylococcus aureus, ATCC11631; broth microdilution; Micrococcus pyogenes ATCC 11631; read-out: MIC
Procedure: as §1, §2, §3

[6] = test system: Neisseria gonorrhoeae ATCC 19424; test: MIC, broth microdilution; format: cell-based; conditions: ATCC19424; broth microdilution; Neisseria gonorrhoeae ATCC 19424; read-out: MIC
Procedure: as §1, §2, §3

[7] = test system: Proteus mirabilis ATCC 14153; test: MIC, broth microdilution; format: cell-based; conditions: ATCC14153; broth microdilution; Proteus mirabilis ATCC 14153; read-out: MIC
Procedure: as §1, §2, §3

[8] = test system: Salmonella paratyphi B ATCC 10719; test: MIC, broth microdilution; format: cell-based; conditions: Salmonella enterica
Procedure: as §1, §2, §3

[9] = test system: Salmonella typhimurium ATCC 14028; test: MIC, broth microdilution; format: cell-based; conditions: Salmonella enterica; broth microdilution; Salmonella typhimurium ATCC 14028; read-out: MIC
Procedure: as §1, §2, §3

[10] = test system: Shigella sonnei ATCC 11060; test: MIC, broth microdilution; format: cell-based; conditions: ATCC11060
Procedure: as §1, §2, §3

[11] = test system: Staphylococcus aureus (MRSA); test: MIC, broth microdilution; format: cell-based
Procedure: as §2, §3

Atopobium vaginae = test: MIC, agar dilution; format: cell-based; conditions: Fannyhessea vaginae
Procedure: as §1, §2, §3

Gardnerella vaginalis = test: MIC, agar dilution; format: cell-based
Procedure: as §1, §2, §3

in vivo [12] = conditions: male, rat, iv, 2 mg/kg
in vivo [13] = conditions: male, rat, po, 15 mg/kg
[14] = test system: Gram positive and negative organisms; test: Antimicrobial activity (MIC), overall comparison; format: cell-based; conditions: Tables 3 and 4, overall
Text: as §1, §3

[15] = rat, in vivo
Procedure: The pharmacokinetic profile of S- and R-nifuratel was assessed after intravenous administration (2 mg/kg) and oral gavage (15 mg/kg) in male rats.

[16] = CCUG38953, agar dilution, Atopobium vaginae CCUG 38953, read-out: MIC
[17] = CCUG42099, agar dilution, Atopobium vaginae CCUG 42099, read-out: MIC
[18] = CCUG43049, agar dilution, Atopobium vaginae CCUG 43049, read-out: MIC
[19] = CCUG44156, agar dilution, Atopobium vaginae CCUG 44156, read-out: MIC
[20] = CCUG48515, agar dilution, Atopobium vaginae CCUG 48515, read-out: MIC
[21] = CCUG55226, agar dilution, Atopobium vaginae CCUG 55226, read-out: MIC
[22] = CCUG55227, agar dilution, Atopobium vaginae CCUG 55227, read-out: MIC
[23] = ATCC14018, agar dilution, Gardnerella vaginalis ATCC 14018, read-out: MIC
[24] = agar dilution, Gardnerella vaginalis C2, read-out: MIC
[25] = agar dilution, Gardnerella vaginalis D2, read-out: MIC
[26] = agar dilution, Gardnerella vaginalis E2, read-out: MIC
[27] = agar dilution, Gardnerella vaginalis G2, read-out: MIC
[28] = agar dilution, Gardnerella vaginalis H2, read-out: MIC
[29] = agar dilution, Gardnerella vaginalis J2, read-out: MIC
[30] = agar dilution, Gardnerella vaginalis K2, read-out: MIC

CSC[C@H]1CN(/N=C/c2ccc([N+](=O)[O-])o2)C(=O)O1 [R-nifuratel, (R)-Nifuratel]
MIC (Bacillus subtilis): 0.25 µg/mL (≈ 0.876 µM) | MIC [1]: 1 µg/mL (≈ 3.51 µM) | MIC ([2]; Helicobacter pylori): 0.125 µg/mL (≈ 0.438 µM) | MIC [3]: 2 µg/mL (≈ 7.01 µM) | MIC [4]: 16 µg/mL (≈ 56.1 µM) | MIC [5]: 2 µg/mL (≈ 7.01 µM) | MIC [6]: 0.25 µg/mL (≈ 0.876 µM) | MIC [7]: 8 µg/mL (≈ 28 µM) | MIC [8]: 1 µg/mL (≈ 3.51 µM) | MIC [9]: 2 µg/mL (≈ 7.01 µM) | MIC [10]: 1 µg/mL (≈ 3.51 µM) | MIC [11]: 2 µg/mL (≈ 7.01 µM) | MIC (Atopobium vaginae; [16]): 0.25 µg/mL (≈ 0.876 µM) | MIC (Atopobium vaginae; CCUG39382): 0.125 µg/mL (≈ 0.438 µM) | MIC (Atopobium vaginae; [17]): 0.25 µg/mL (≈ 0.876 µM) | MIC (Atopobium vaginae; [18]): 0.25 µg/mL (≈ 0.876 µM) | MIC (Atopobium vaginae; CCUG44061, agar dilution, Atopobium vaginae CCUG 44061, read-out: MIC): 0.25 µg/mL (≈ 0.876 µM) | MIC (Atopobium vaginae; [19]): 0.25 µg/mL (≈ 0.876 µM) | MIC (Atopobium vaginae; [20]): 0.5 µg/mL (≈ 1.75 µM) | MIC (Atopobium vaginae; [21]): 1 µg/mL (≈ 3.51 µM) | MIC (Atopobium vaginae; [22]): 0.25 µg/mL (≈ 0.876 µM) | MIC (Gardnerella vaginalis; [23]): 1 µg/mL (≈ 3.51 µM) | MIC (Gardnerella vaginalis; [24]): 4 µg/mL (≈ 14 µM) | MIC (Gardnerella vaginalis; [25]): 4 µg/mL (≈ 14 µM) | MIC (Gardnerella vaginalis; [26]): 1 µg/mL (≈ 3.51 µM) | MIC (Gardnerella vaginalis; [27]): 2 µg/mL (≈ 7.01 µM) | MIC (Gardnerella vaginalis; [28]): 1 µg/mL (≈ 3.51 µM) | MIC (Gardnerella vaginalis; [29]): 2 µg/mL (≈ 7.01 µM) | MIC (Gardnerella vaginalis; [30]): 4 µg/mL (≈ 14 µM) | AUC(0-inf) (in vivo [12]): 750 ng·h/mL | AUC(0-t) (in vivo [12]): 740 ng·h/mL | Clast (in vivo [12]): 43 ng/mL | Cmax (in vivo [12]): 4190 ng/mL | MRT (in vivo [12]): 7 min | Tlast (in vivo [12]): 75 min | Tmax (in vivo [12]): 2 min | VSR (in vivo [12]): 0.4 L/kg | clearance (in vivo [12]): 49 mL/min/kg | half-life (in vivo [12]): 11 min | AUC(0-t) (in vivo [13]): 66.8 ng·h/mL | Clast (in vivo [13]): 3 ng/mL | Cmax (in vivo [13]): 34 ng/mL | MRT (in vivo [13]): 82.4 h | Tlast (in vivo [13]): 480 min | Tmax (in vivo [13]): 5 min | half-life (in vivo [13]): 236 min | antimicrobial profile compared to nifuratel racemate or (S)-nifuratel [14]: better antimicrobial profile | overall pharmacokinetic profile [15]: best pharmacokinetic profile

CSC[C@@H]1CN(/N=C/c2ccc([N+](=O)[O-])o2)C(=O)O1 [S-Nifuratel, (S)-Nifuratel]
MIC (Bacillus subtilis): 1 µg/mL (≈ 3.51 µM) | MIC [1]: 2 µg/mL (≈ 7.01 µM) | MIC ([2]; broth microdilution, Helicobacter pylori ATCC 43504, read-out: MIC): 0.25 µg/mL (≈ 0.876 µM) | MIC [3]: 4 µg/mL (≈ 14 µM) | MIC [4]: 32 µg/mL (≈ 112 µM) | MIC [5]: 1 µg/mL (≈ 3.51 µM) | MIC [6]: 0.5 µg/mL (≈ 1.75 µM) | MIC [7]: 8 µg/mL (≈ 28 µM) | MIC [8]: 4 µg/mL (≈ 14 µM) | MIC [9]: 8 µg/mL (≈ 28 µM) | MIC [10]: 4 µg/mL (≈ 14 µM) | MIC [11]: 4 µg/mL (≈ 14 µM) | MIC (Atopobium vaginae; [16]): 0.25 µg/mL (≈ 0.876 µM) | MIC (Atopobium vaginae; CCUG39382, agar dilution, Atopobium vaginae CCUG 39382, read-out: MIC): 0.25 µg/mL (≈ 0.876 µM) | MIC (Atopobium vaginae; [17]): 0.5 µg/mL (≈ 1.75 µM) | MIC (Atopobium vaginae; [18]): 0.5 µg/mL (≈ 1.75 µM) | MIC (Atopobium vaginae; CCUG44061): 0.125 µg/mL (≈ 0.438 µM) | MIC (Atopobium vaginae; [19]): 0.25 µg/mL (≈ 0.876 µM) | MIC (Atopobium vaginae; [20]): 1 µg/mL (≈ 3.51 µM) | MIC (Atopobium vaginae; [21]): 1 µg/mL (≈ 3.51 µM) | MIC (Atopobium vaginae; [22]): 0.5 µg/mL (≈ 1.75 µM) | MIC (Gardnerella vaginalis; [23]): 2 µg/mL (≈ 7.01 µM) | MIC (Gardnerella vaginalis; [24]): 8 µg/mL (≈ 28 µM) | MIC (Gardnerella vaginalis; [25]): 2 µg/mL (≈ 7.01 µM) | MIC (Gardnerella vaginalis; [26]): 2 µg/mL (≈ 7.01 µM) | MIC (Gardnerella vaginalis; [27]): 1 µg/mL (≈ 3.51 µM) | MIC (Gardnerella vaginalis; [28]): 2 µg/mL (≈ 7.01 µM) | MIC (Gardnerella vaginalis; [29]): 4 µg/mL (≈ 14 µM) | MIC (Gardnerella vaginalis; [30]): 4 µg/mL (≈ 14 µM) | AUC(0-inf) (in vivo [12]): 167 ng·h/mL | AUC(0-t) (in vivo [12]): 166 ng·h/mL | Clast (in vivo [12]): 5 ng/mL | Cmax (in vivo [12]): 1150 ng/mL | MRT (in vivo [12]): 4 min | Tlast (in vivo [12]): 53 min | Tmax (in vivo [12]): 2 min | VSR (in vivo [12]): 0.9 L/kg | clearance (in vivo [12]): 203 mL/min/kg | half-life (in vivo [12]): 8 min | AUC(0-t) (in vivo [13]): 32.6 ng·h/mL | Clast (in vivo [13]): 3 ng/mL | Cmax (in vivo [13]): 6 ng/mL | Tlast (in vivo [13]): 480 min | Tmax (in vivo [13]): 5 min
